Among the test systems are NCI/ADR-RES; A498; COLO 205; PC-3; UO-31; Malme-3M; EKVX; SK-MEL-28; NCI-H460; SN12C; HCT-15; RXF 393; SW-620; A549; NCI-H23; KM12; UACC-257; BT-549; UACC-62.
Experiment in all cases: NCI tumour cell line growth inhibition, 48 h

Each structure is given as a SMILES string.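 Test compounds were applied to cells in 96-well plates for 48 hours at 5 doses. GI50 = concentration required for 50% inhibition of growth.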 Activity calls are given as the source filed them. Cut-off read from the data, not from the text of the source: active = GI50 up to about 1.1 µM and inactive = higher.

As for `CCOC(=O)Cc1csc(NC(NC(=O)OCC)(C(=O)OCC)C(F)(F)F)n1` (centres undefined), the GI50 with NCI/ADR-RES, in the assay with A498, in the assay with COLO 205, with PC-3, in the assay on UO-31 and in the assay with Malme-3M was > 100 µM (inactive) throughout. The GI50 with EKVX is > 100 µM (inactive); with SK-MEL-28, > 100 µM (inactive); with NCI-H460, > 100 µM (inactive); with SN12C, > 100 µM (inactive); in the assay with HCT-15, more than 100 µM; with RXF 393, > 100 µM (inactive). The GI50 in the assay with SW-620, in the assay with A549, in the assay on NCI-H23, in the assay with KM12 and with UACC-257 was > 100 µM (inactive) each time.

With `COC(=O)c1cnc(Cl)cn1`, the GI50 is 37 µM (inactive) in the assay on BT-549; 45.6 µM (inactive) in the assay on NCI/ADR-RES; > 100 µM (inactive) with COLO 205; 13.6 µM (inactive) with PC-3; 20.2 µM (inactive) in the assay with UO-31; 50.2 µM (inactive) in the assay on Malme-3M. For the same molecule, the GI50 was 33.3 µM (inactive) in the assay with EKVX; 53.3 µM (inactive) with SK-MEL-28; > 100 µM (inactive) with NCI-H460; 30.5 µM (inactive) with SN12C; 17.3 µM in the assay with HCT-15; 63.7 µM (inactive) with SW-620. The GI50 with A549 is > 100 µM (inactive); in the assay on NCI-H23 it was 20.1 µM (inactive); in the assay with KM12, 24.9 µM (inactive); with UACC-257 it was 57.9 µM (inactive); with UACC-62, 33 µM (inactive).

In the case of `C/C(CC(O)(C(F)(F)F)C(F)(F)F)=N\NC(N)=O`, the GI50 in the assay on NCI/ADR-RES, in the assay on A498, in the assay with COLO 205, with PC-3, in the assay with UO-31 and with Malme-3M was > 10 µM (inactive) each time. The GI50 with EKVX was > 10 µM (inactive); with SK-MEL-28, > 10 µM (inactive); with NCI-H460 it was > 10 µM (inactive); with SN12C, > 10 µM (inactive); with HCT-15 it was more than 10 µM; in the assay with RXF 393 it was > 10 µM (inactive). For the same molecule, the GI50 in the assay with SW-620, in the assay on A549, with NCI-H23, with KM12, with UACC-257 and in the assay with UACC-62 was > 10 µM (inactive) in each case.

`CCCCCCC(=O)O[C@H]1CC[C@H]2[C@@H]3CCC4C/C(=N/NC(=O)c5cccc6c(=O)c7ccccc7[nH]c56)C=C(C)[C@]4(C)[C@H]3CC[C@]12C` (some centres undefined): the GI50 was > 25 µM (inactive) in the assay on BT-549; > 25 µM (inactive) in the assay on NCI/ADR-RES; > 25 µM (inactive) in the assay on COLO 205; > 25 µM (inactive) in the assay on PC-3; 19.6 µM (inactive) in the assay on UO-31; > 25 µM (inactive) with Malme-3M. In addition, the GI50 is > 25 µM (inactive) in the assay on EKVX; > 25 µM (inactive) with SN12C; more than 25 µM in the assay on HCT-15; > 25 µM (inactive) in the assay with SW-620; > 25 µM (inactive) in the assay with A549; > 25 µM (inactive) in the assay with NCI-H23. Further, the figures for the GI50 in the assay with KM12, in the assay with UACC-257 and in the assay with UACC-62 were 9.27 µM (inactive), > 25 µM (inactive) and > 25 µM (inactive), respectively.

Turning to `Nc1ccn(C2CC(O)C(COP(=O)(S)OC3CC(n4ccc(N)nc4=O)OC3CO)O2)c(=O)n1` (centres undefined), the GI50 in the assay on BT-549 is > 100 µM (inactive); with NCI/ADR-RES, > 100 µM (inactive); in the assay on COLO 205, 13.8 µM (inactive); in the assay with PC-3 it was > 100 µM (inactive); in the assay on UO-31, > 100 µM (inactive); in the assay on EKVX, > 100 µM (inactive). For the same molecule, the GI50 in the assay with SK-MEL-28 was > 100 µM (inactive); in the assay on NCI-H460, > 100 µM (inactive); in the assay with SN12C, 52.4 µM (inactive); with HCT-15, more than 100 µM; with SW-620, > 100 µM (inactive); in the assay on A549, > 100 µM (inactive). Moreover, the GI50 with NCI-H23, in the assay on KM12, in the assay on UACC-257 and in the assay with UACC-62 was > 100 µM (inactive) in each case.

Turning to `CCCCC1CCCCCCc2[nH]c(/C=C3\N=C(c4ccc[nH]4)C=C3OC)cc21` (centres undefined), the GI50 is < 0.0169 µM (active) in the assay on NCI/ADR-RES; 0.515 µM (active) in the assay with A498; < 0.011 µM (active) in the assay with COLO 205; < 0.0119 µM (active) in the assay on PC-3; 0.0194 µM (active) with UO-31; 0.0241 µM (active) in the assay with Malme-3M. Moreover, the GI50 in the assay on EKVX is < 0.0167 µM (active); in the assay on SK-MEL-28, < 0.0162 µM (active); in the assay on NCI-H460 it was < 0.01 µM (active); with SN12C, < 0.0185 µM (active); with HCT-15, less than 0.01 µM; in the assay on RXF 393 it was 0.078 µM (active). The GI50 in the assay on SW-620 was < 0.01 µM (active); in the assay with A549, < 0.0139 µM (active); with NCI-H23 it was < 0.0221 µM (active); with KM12 it was < 0.01 µM (active); in the assay with UACC-257, 0.13 µM (active); with UACC-62, < 0.0127 µM (active).

On to `C=C1C[C@]23CC[C@@H]4C(CO)(CO)CC(=O)C[C@]4(C)[C@@H]2CC[C@H]1C3`, for which the GI50 is > 100 µM (inactive) in the assay on BT-549; > 100 µM (inactive) with NCI/ADR-RES; > 100 µM (inactive) in the assay on COLO 205; 40.5 µM (inactive) in the assay on PC-3; 78.5 µM (inactive) in the assay with UO-31; > 100 µM (inactive) in the assay on Malme-3M. The GI50 in the assay with EKVX was > 100 µM (inactive); in the assay with SK-MEL-28, > 100 µM (inactive); with NCI-H460 it was > 100 µM (inactive); with SN12C, > 100 µM (inactive); in the assay on HCT-15 it was more than 100 µM; with SW-620 it was > 100 µM (inactive). For the same molecule, the GI50 with A549, in the assay on NCI-H23, in the assay on UACC-257 and in the assay with UACC-62 was > 100 µM (inactive) in each case.

Regarding `CC1=NN(c2nc(N)nc(/C(C#N)=C\C3COc4ccccc4C3=O)n2)C(C)(C)C1` (centres undefined), the GI50 with NCI/ADR-RES is 15.9 µM (inactive); in the assay on A498, 17.9 µM (inactive); with PC-3, 24.4 µM (inactive); with UO-31, 18.9 µM (inactive); in the assay on EKVX, 22.5 µM (inactive); in the assay with SK-MEL-28 it was 21.6 µM (inactive). Moreover, the GI50 is 26.9 µM (inactive) in the assay on NCI-H460; 22.9 µM in the assay with HCT-15; 16.4 µM (inactive) in the assay with RXF 393; 30.7 µM (inactive) in the assay on SW-620; 27 µM (inactive) in the assay with NCI-H23; 36.7 µM (inactive) with KM12. In addition, the GI50 with UACC-257 was 51.4 µM (inactive).

Turning to `CC(NC1=NCCO1)c1ccco1` (centres undefined), the GI50 is > 100 µM (inactive) with NCI/ADR-RES; > 100 µM (inactive) with A498; 79.8 µM (inactive) with COLO 205; > 100 µM (inactive) with PC-3; > 100 µM (inactive) in the assay with UO-31; > 100 µM (inactive) in the assay on Malme-3M. For the same molecule, the GI50 with EKVX was > 100 µM (inactive); in the assay on SK-MEL-28, > 100 µM (inactive); with NCI-H460, > 100 µM (inactive); in the assay on SN12C, > 100 µM (inactive); in the assay with HCT-15 it was more than 100 µM; in the assay with RXF 393, > 100 µM (inactive). Besides, the GI50 with SW-620 is > 100 µM (inactive); with A549, > 100 µM (inactive); in the assay on NCI-H23, > 100 µM (inactive); in the assay on KM12 it was 20.3 µM (inactive); with UACC-257 it was > 100 µM (inactive); in the assay on UACC-62 it was > 100 µM (inactive).

As to `Cc1nc2ccccc2c(=O)n1/N=C(\N=N\c1cc(Cl)ccc1Cl)c1cccc(-c2ccco2)c1`, the GI50 in the assay with A498 was > 100 µM (inactive); in the assay on COLO 205 it was > 100 µM (inactive); in the assay on UO-31 it was 37.7 µM (inactive); in the assay on Malme-3M, > 100 µM (inactive); in the assay with EKVX it was > 100 µM (inactive); with SK-MEL-28, > 100 µM (inactive). The GI50 was > 100 µM (inactive) with NCI-H460; 88.3 µM (inactive) in the assay with SN12C; 74.6 µM with HCT-15; 67.8 µM (inactive) in the assay on RXF 393; > 100 µM (inactive) with SW-620; > 100 µM (inactive) in the assay with A549. The GI50 in the assay with NCI-H23 was > 100 µM (inactive); in the assay on KM12, 82.6 µM (inactive); with UACC-257 it was > 100 µM (inactive); in the assay with UACC-62, 48.1 µM (inactive).

For `N#CC1(C#N)C2C=CC(C3CC=CC32)C1(C#N)C#N` (centres undefined), the GI50 is 12.9 µM (inactive) with NCI/ADR-RES; 9.84 µM (inactive) with A498; 2.07 µM (inactive) with COLO 205; 8.59 µM (inactive) with PC-3; 2.17 µM (inactive) with UO-31; 2.79 µM (inactive) in the assay on Malme-3M. The GI50 is 12.3 µM (inactive) in the assay on EKVX; 10.9 µM (inactive) with SK-MEL-28; > 50 µM (inactive) in the assay with NCI-H460; 10.4 µM (inactive) in the assay on SN12C; 1.98 µM with HCT-15; 5.16 µM (inactive) with RXF 393. Also, the GI50 in the assay on SW-620 was 2.13 µM (inactive); with A549, 10.7 µM (inactive); in the assay with NCI-H23, 8.32 µM (inactive); in the assay with KM12, > 10 µM (inactive); in the assay with UACC-257 it was 12.7 µM (inactive); in the assay with UACC-62 it was 8.77 µM (inactive).

Consider `O=C(Cc1ccccc1)NN1C(=O)/C(=C\c2ccccc2O)S/C1=N\c1ccccc1`, for which the GI50 in the assay on BT-549, in the assay with NCI/ADR-RES, in the assay with A498, in the assay on COLO 205, in the assay with UO-31 and in the assay with EKVX was > 100 µM (inactive) each time. In addition, the GI50 in the assay with SK-MEL-28 is > 100 µM (inactive); in the assay on NCI-H460, > 100 µM (inactive); with SN12C, > 100 µM (inactive); in the assay with HCT-15, more than 100 µM; in the assay with RXF 393, > 100 µM (inactive); in the assay on SW-620 it was > 100 µM (inactive). Also, the GI50 with A549, in the assay with NCI-H23, with KM12, with UACC-257 and in the assay on UACC-62 was > 100 µM (inactive) in each case.

For the origin of these results see ChEMBL document CHEMBL1201862, “PubChem BioAssay data set” (2004).
